Read-outs that look alike come from different tables or passages of the source.
How the values were obtained:
[1] = test system: covalent topoisomerase II-DNA complexes; experiment: K-SDS precipitation assay for protein-DNA complexes in KB ATCC cells (cellular protein-DNA complex formation); format: cell-based; settings: compared with etoposide
Protocol: (§1) The compounds of the present invention were tested for their degree of inhibitory activity on human type II DNA topoisomerase, their effect on the formation of protein-linked DNA breakage, and their cytotoxicity. The inhibitory activity for compounds of the present invention correlated with the ability of the compounds to cause DNA strand breakage. […] For a description of the assays used with respect to the compounds listed in Tables 1 to 5 see Thurston, L.S., Irie, H., Tani, S., Han, F. S., Liu, Z. C., Cheng, Y.C., and Lee, K. H., Antitumor Agents 78. Inhibition of Human DNA Topoisomerase II by Podophyllotoxin and Peltatin Analogues, J. Med. Chem. 29, 1547 (1986), and the references cited therein, herein incorporated by reference.
(§2) Drugs were dissolved in Me2 SO at a concentration of 20 mM as the stock solution and diluted before use with water to the desired concentration of each drug.
The intracellular formation of covalent topoisomerase II-DNA complexes was quantitated using the potassium SDS precipitation assay, a procedure adapted from the method described in Rowe, T. C., Chen, G. L., Hsiang, Y. H., and Liu, L., Cancer Res., 46, 2021 (1986) (hereinafter Rowe et al.), which is herein specifically incorporated by reference. KB ATCC cells were prelabeled with 0.05 mCi/ml ^14 C-thymidine (specific activity 50.5 mCi/mmol) for 18 hr. A final concentration of 5×10^5 cells/sample were treated with 10 μM of the drugs at 37° C. for 1 hr and proceeded according to the procedure described by Rowe et al. to detect the protein linked DNA levels.

KB cells = experiment: Cytotoxicity: 50% reduction in cell number of KB cells after three day incubation; format: cell-based; settings: Homo sapiens, 72 h, KB cells, three day incubation, read-out: Cytotoxicity ID50 KB
Protocol: as §1
in cell number after three day incubation.

[2] = target: Human DNA topoisomerase II; experiment: DNA topoisomerase II assay (P4 unknotting reaction); format: biochemical; settings: for IC50: read-out: Inhibition of DNA Topoisomerase II Activity ID50; for inhibition of DNA topoisomerase activity relative to etoposide: compared with etoposide
Protocol: as §1, with “cytotoxicity.” for “cytotoxicity. The inhibitory activity for compounds of the present invention correlated with the ability of the compounds to cause DNA strand breakage.”
Human DNA topoisomerase II was isolated from peripheral blast cells of a patient with acute leukemia. The isolation procedure is described in Thurston, L., Imakura, Y., Haruna, M., Li, Z. C., Liu, S. Y., and Lee, K. H., J. Med. Chem., 31, […] (1988) and is a partial combination of the procedure described in Goto, T., Laiapia, P. and Wang, J., J. Biol. Chem., 259, 10422 (1984) and Halligan, B., Edwards, K., and Liu, L., J. Biol. Chem., 260, 2475 (1985) which are herein specifically incorporated by reference.
as §2
The P4 unknotting reaction was a modification of the procedure described by Hseih, T., J. Biol. Chem., 258, 8413 (1985), which is herein specifically incorporated by reference.
The reaction mixture (20 μL), which contained 50 mM HEPES, pH 7.0, 50 mM KCI, 100 mM NaCl, 0.1 mM EDTA, 10 mM MgCl2, 1.0 mM ATP, 50 μg/mL bovine serum albumin, 0.4 μg P4knotted DNA, and enzyme, was incubated with or without drugs.
The reaction mixture was incubated at 37° C. for 30 min and terminated by adding 5.0 μl of a stop solution (2% sodium dodecyl sulfate, 20% glycerol, 0.05% bromophenol blue). These samples were loaded onto a 1% agarose gel and electrophoresed at 55 V overnight with an electrophoresis buffer that contained 90 mM Tris-boric acid, pH 8.3, and 2.5 mM EDTA. At completion, the gel was stained in 0.5 μg/mL of ethidium bromide. Then a photograph was taken of the DNA bands visualized with fluorescence induced by a long-wavelength UV lamp. […]

[3] = Table 1, based on degree of inhibition at 25, 50, and 100 μM
[4] = Table 4, based on degree of inhibition at 10, 25, 50 and 100 μM
[5] = Table 3, based on degree of inhibition at 20, 25, 50 and 100 μM

COc1cc(C2c3cc4c(cc3C(NCc3cccc(F)c3)C3COC(=O)C23)OCO4)cc(OC)c1O (stereo not drawn) [Example 8, 4-O-Dimethyl-4β-(3"-fluorobenzylamino)-4-desoxypodophyllotoxin]
inhibition of cellular protein-DNA complex formation relative to etoposide [1]: over twice | IC50 (KB cells; Table 1): 3 µM | IC50 [2, 3]: 25 µM | inhibition of DNA topoisomerase activity relative to etoposide [2]: over twice

COc1cc(C2c3cc4c(cc3C(NCc3ccc(C#N)cc3)C3COC(=O)C23)OCO4)cc(OC)c1O (stereo not drawn) [Example 11, 4'-O-Demethyl-4β-(4"-cyanobenzylamino)-4-desoxypodophyllotoxin]
inhibition of cellular protein-DNA complex formation relative to etoposide [1]: over twice | IC50 (KB cells; Table 1): < 0.4 µM | IC50 [2, 3]: 25 µM | inhibition of DNA topoisomerase activity relative to etoposide [2]: over twice

COc1cc(C2c3cc4c(cc3C(Nc3ccc([N+](=O)[O-])cc3)C3COC(=O)C23)OCO4)cc(O)c1O (stereo not drawn) [Example 23, 3',4'-O-Didemethyl-4β-(4"-nitroanilino)-4-desoxypodophyllotoxin]
inhibition of cellular protein-DNA complex formation relative to etoposide [1]: over twice | IC50 (KB cells; Table 2): 1.3 µM | IC50 ([2]; Table 2, based on degree of inhibition at 10, 25, 50 and 100 μM): 10 µM | inhibition of DNA topoisomerase activity relative to etoposide [2]: over twice

COc1cc([C@@H]2c3cc4c(cc3[C@@H](NC(=O)c3cccc(N)c3)[C@H]3COC(=O)[C@H]23)OCO4)cc(OC)c1O [Example 42, 4'-O-Demethyl-4β-[(3"-aminobenzoyl)amino]-4-desoxypodophyllotoxin]
IC50 (KB cells; Table 4): 0.42 µM | IC50 [2, 4]: 25 µM

COc1cc([C@@H]2c3cc4c(cc3[C@@H](NC(=O)c3ccc(C#N)cc3)[C@H]3COC(=O)[C@H]23)OCO4)cc(OC)c1O [Example 40, 4'-O-Demethyl-4β-[(4"-cyanobenzoyl)amino]-4-desoxypodophyllotoxin]
IC50 (KB cells; Table 4): 0.1 µM | IC50 [2, 4]: 25 µM

COc1cc(C2c3cc4c(cc3C(NCc3ccccc3)C3COC(=O)C23)OCO4)cc(OC)c1O (stereo not drawn) [Example 3, 4'-O-Demethyl-4β-benzylamino-4-desoxypodophyllotoxin]
IC50 (KB cells; Table 1): 2.2 µM | IC50 [2, 3]: 25 µM

COc1cc(C2c3cc4c(cc3C(NCc3ccccc3F)C3COC(=O)C23)OCO4)cc(OC)c1O (stereo not drawn) [Example 7, 4-O-Demethyl-4β-(2"-fluorobenzylamino)-4-desoxypodophyllotoxin]
IC50 (KB cells; Table 1): 1.9 µM | IC50 [2, 3]: 100 µM

COc1cc([C@@H]2c3cc4c(cc3[C@@H](NC(=O)c3ccc(OC(C)=O)cc3)[C@H]3COC(=O)[C@H]23)OCO4)cc(OC)c1O [Example 37, 4'-O-Demethyl-4β-[(4-acetoxybenoyl)amino]-4-desoxypodophyllotoxin]
IC50 (KB cells; Table 4): 0.61 µM | IC50 [2, 4]: 25 µM

CCOC(=O)c1ccc(N[C@@H]2c3cc(OC)c(OC)cc3[C@@H](c3cc(OC)c(O)c(OC)c3)[C@H]3C(=O)OC[C@@H]32)cc1 [Example 33, 6,7-O-demethylene-6,7-O-dimethyl-4'-O-demethyl-4β-[4"-(ethoxycarbonyl)anilino]-4-desoxypodophyllotoxin]
IC50 (KB cells; Table 3): < 0.4 µM | IC50 [2, 5]: 100 µM

COc1cc(C2c3cc4c(cc3C(NCc3ccc([N+](=O)[O-])cc3)C3COC(=O)C23)OCO4)cc(OC)c1O (stereo not drawn) [Example 4, 4'-O-Demethyl-4β-(4"-nitrobenzylamino)-4-desoxypodophyllotoxin]
IC50 (KB cells; Table 1): 0.4 µM | IC50 [2, 3]: 50 µM

COc1cc([C@@H]2c3cc(O)c(O)cc3[C@@H](Nc3ccc([N+](=O)[O-])cc3)[C@H]3COC(=O)[C@H]23)cc(OC)c1O [Example 27, 6,7-O-Demethylene-4'-O-demethyl-4β-(4"-nitroanilino)-4-desoxypodophyllotoxin]
IC50 (KB cells; Table 3): 0.76 µM | IC50 [2, 5]: 20 µM

COc1cc(C2c3cc4c(cc3C(NCc3ccccc3N)C3COC(=O)C23)OCO4)cc(OC)c1O (centres unmarked) [Example 14]
IC50 (KB cells; Table 1): < 0.4 µM | IC50 [2, 3]: 25 µM

COc1cc([C@@H]2c3cc4c(cc3[C@@H](NC(=O)c3ccc(F)cc3)[C@H]3COC(=O)[C@H]23)OCO4)cc(OC)c1O [Example 36, 4'-O-Demethyl-4β-[(4"-fluorobenzoyl)amino]-4-desoxypodophyllotoxin]
IC50 (KB cells; Table 4): 0.34 µM | IC50 [2, 4]: 25 µM
